Measured values: patent US11225469B2, “Inhibitors of phosphoglycerate dehydrogenase (PHGDH) and uses thereof” (Whitehead Institute for Biomedical Research, priority 2015, dated 2022)

Assays:
[1] = test system: MDA-MB-231 orthotopic xenografts; assay: MDA-MB-231 orthotopic xenografts; type: in vivo, mouse; conditions: 40 mg/kg daily, IP
Experimental: (§1) Female NOD.CB17-Prkdc^scid/J mice, 6-8 weeks old, were obtained from Jackson Laboratories. All animals were provided with food ad libitum for the duration for the duration of the experiment. The animals were allocated randomly for induction with MDA-MB-231 or MDA-MB-468 tumors and tumor group was assigned blindly. 500,000 MDA-MB-231 or MDA-MB-468 cells were injected into the 4th mammary fat pad of each mouse. After 30 days, the tumors were palpable, and the mice were pooled by tumor type and divided randomly to two groups, which were assigned blindly to vehicle or NCT-503 treatment. […] Caliper measurements were obtained twice weekly and tumor volumes were calculated with the modified ellipsoid formula: volume=0.5×width^2×length.
(§2) For quantitation of necrotic regions, fixed tumors were embedded and sections stained with hematoxylin and eosin. Slides were scanned with a Leica Aperio AT2 brightfield scanner. Tumor and necrotic cross-sectional regions were manually delineated and measured using Leica ImageScope software to calculate the percentage of necrosis.

[2] = test system: MDA-MB-468 orthotopic xenografts; assay: MDA-MB-468 orthotopic xenografts; type: in vivo, mouse; conditions: 40 mg/kg daily, IP
Experimental: as §1, §2

[3] = test system: MDA-MB-231 cells over-expressing PHGDH; assay: Intracellular serine in MDA-MB-231 cells expressing PHGDH, medium lacking serine and glycine (LC-MS); type: cell-based, human; conditions: media lacking serine and glycine
Experimental: To examine target engagement of PHGDH inhibitors in cells, MDA-MB-231 cells that lack detectable expression of PHGDH and MDA-MB-231 cells that stably express full-length human PHGDH (MDA-MB-231-PHGDH) were treated with PHGDH inhibitors in RPMI lacking serine and glycine. A MDA-MB-231 cell line was constructed which expresses PHGDH for comparison against the MDA-MB-231 empty vector line. MDA-MB-231 breast cancer cells were infected with PHGDH-expressing retrovirus.
MDA-MB-231 cells are incapable of synthesizing serine, but the addition of PHGDH permits these cells to synthesize serine. […] Concentrations of serine were determined by comparison with signals of internal standards and calibration curves. PHGDH inhibition reduces steady-state levels of intracellular serine in MDA-MB-231 cells over-expressing PHGDH. Studies were also performed in MDA-MB-468 cells, which over-express PHGDH and are PHGDH-dependent.
Cells were evenly seeded at 400,000 cells per well of a 6-well plate and allowed to attach for 24 hours. Prior to all labeling experiments, cells were pretreated with 10 μM compound or an equivalent volume of DMSO in RPMI for 1 hour. For steady-state metabolite concentrations, cells were washed with PBS prior to pretreatment and treatment in RPMI lacking serine and glycine. For labeling experiments, U-^13C-glucose, U-^13C-serine, or U-^13C-glycine replaced the corresponding unlabeled RPMI component. Cells were washed in 4° C. […] Triplicate identically seeded wells were trypsinzed and analyzed with a Multisizer Coulter Counter (Beckman Coulter) to obtain cell counts and total cell volumes for normalization.
Dried metabolites were resuspended in 100 μL water, centrifuged at 13,000×g at 4° C. for 10 minutes, and the supernatant recovered for analysis. […] Metabolites were monitored using a polarity-switching full-scan method and identified by accurate mass (±20 ppm) and retention time within 15 seconds of a previously run pure standard. […]

[4] = Pharmacokinetics after intraperitoneal administration; type: in vivo
MDA-MB-468 cells = assay: Cell cycle analysis; type: cell-based, human; conditions: after 48 hours
GAPDH = GAPDH (Homo sapiens (Human), UniProt P04406); assay: Counter-screen against GAPDH; type: biochemical; conditions: Table E11
GAPDH, sequence (P04406 whole entry): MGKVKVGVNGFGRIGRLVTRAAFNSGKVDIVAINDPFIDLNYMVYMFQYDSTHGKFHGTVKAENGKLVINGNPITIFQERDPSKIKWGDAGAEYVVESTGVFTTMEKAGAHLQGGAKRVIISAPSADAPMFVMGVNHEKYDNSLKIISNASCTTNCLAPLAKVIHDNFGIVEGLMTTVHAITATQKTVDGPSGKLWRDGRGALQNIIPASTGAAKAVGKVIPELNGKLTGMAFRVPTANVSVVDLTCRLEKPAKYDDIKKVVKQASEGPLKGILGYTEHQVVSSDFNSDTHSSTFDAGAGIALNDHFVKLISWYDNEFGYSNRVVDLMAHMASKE
Experimental: GAPDH substrate buffer contained 210 mM Tris pH 7.4, 2.5 mM NaH2PO4 pH 7.4, 2 mM DL-Glyceraldehyde 3-phosphate, 1.75 mM MgCl2, 0.01 mM NAD+, 0.11 mM resazurin, 0.2 mg/mL BSA, and 0.01% Tween-20. GAPDH enzyme buffer contained 50 mM Tris pH 7.4, 100 mM NaCl, 0.02 mM TCEP, 0.01 mM EDTA, 0.1 mg/mL BSA, 0.42 mg/mL diaphorase, and 2.5 nM GAPDH. The GAPDH, GPD1, and GPD1L assays were run in 384-well plates using the same protocol and readout as the PHGDH assay. […] GPD1 enzyme buffer contained 50 mM Tris pH 7.4, 100 mM NaCl, 0.08 mM TCEP, 0.4 mg/mL BSA, 0.03 μM EDTA, and 0.8 nM GPD1. 70 μL of substrate buffer were mixed with 10 μL enzyme buffer. GPD1L substrate buffer contained 200 mM Tris pH 7.4, 0.05 mM sn-G3-P, 2 mM MgCl2, 0.04 mM NAD+, 0.11 mM resazurin, 0.1 mg/mL BSA, and 0.02% Tween-20. GPD1L enzyme buffer contained 50 mM Tris pH 7.4, 100 mM NaCl, 0.02 mM TCEP, 0.42 mg/mL diaphorase, 0.1 mg/mL BSA, 0.008 μM EDTA, and 16 nM GPD1L. 40 μL of substrate buffer were mixed with 40 μL of enzyme buffer.
The GAPDH and GPD1L assays were read using the same protocol as the PHGDH assay. The GPD1 assay was read using loss of NADH fluorescence (λex=340 nm and λem=460 nm).

Question: For `Cc1cc(C)nc(NC(=S)N2CCN(Cc3ccc(C(F)(F)F)cc3)CC2)c1` [Compound 267, N-(4,6-dimethylpyridin-2-yl)-4-(4-(trifluoromethyl)benzyl)piperazine-1-carbothioamide], which “growth or weight of xenografts” value [1] is on record?
Answer: did not affect the growth or weight

Question: What about the fraction of necrosis [2] of the same molecule?
Answer: increases the fraction of necrosis

Question: And the “growth and weight of xenografts” value [2]?
Answer: reduced the growth and weight

Question: And the intracellular serine levels [3]?
Answer: reduced

Question: What about the “partitioning into the liver and brain” value [4] of the same molecule?
Answer: significant partitioning

Question: And the cell cycle effect (MDA-MB-468 cells)?
Answer: G1/S arrest

Question: And the IC50 (GAPDH)?
Answer: ≥ 100 µM
